From PMC12796986 (Journal of medicinal chemistry, 2025)
Like-named read-outs stand apart in the source and are kept apart here.

Molecular target: mpox resolvase (Mpr) (Monkeypox virus, UniProt A0A7H0DNC1)
Experiment: biochemical
Assay type: biochemical

Chain of mpox resolvase (Mpr) (A0A7H0DNC1 whole entry, looked up): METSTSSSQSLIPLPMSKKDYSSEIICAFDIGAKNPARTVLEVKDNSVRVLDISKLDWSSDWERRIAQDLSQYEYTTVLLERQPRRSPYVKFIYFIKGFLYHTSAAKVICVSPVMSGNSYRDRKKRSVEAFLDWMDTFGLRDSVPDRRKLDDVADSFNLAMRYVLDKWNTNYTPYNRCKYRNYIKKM

3-(5,8-dihydroxy-7-oxo-6-phenyl-7,8-dihydro-1,8-naphthyridin-3-yl) benzamide [4a-12]
fluorescence quenching in the FRET assay: fluorescence quenching

O=c1c(-c2ccccc2)c(O)c2cc(-c3ccc(-c4ccccc4)cc3)cnc2n1O [4a-2, 6-([1,1’-biphenyl]-4-yl)-1,4-dihydroxy-3-phenyl-1,8-naphthyridin-2(1H)-one]
IC50: 0.25 ± 0.01 µM

COc1ccc2cc(-c3cnc4c(c3)c(O)c(-c3ccccc3)c(=O)n4O)ccc2c1 [4a-4, 1,4-dihydroxy-6-(6-methoxynaphthalen-2-yl)-3-phenyl-1,8-naphthyridin-2(1H)-one]
IC50: 0.97 ± 0.03 µM

O=c1c(-c2ccccc2)c(O)c2cc(-c3ccccc3F)cnc2n1O [4a-6, 6-(2-fluorophenyl)-1,4-dihydroxy-3-phenyl-1,8-naphthyridin-2(1H)-one]
IC50: 1.1 ± 0.1 µM

O=c1c(-c2ccccc2)c(O)c2cc(-c3ccc(C(F)(F)F)cc3)cnc2n1O [4a-7, 1,4-dihydroxy-3-phenyl-6-(4-(trifluoromethyl)phenyl)-1,8-naphthyridin-2(1H)-one]
IC50: 0.6 ± 0.1 µM

CSc1ccc(-c2cnc3c(c2)c(O)c(-c2ccccc2)c(=O)n3O)cc1 [4a-8, 1,4-dihydroxy-6-(4-(methylthio)phenyl)-3-phenyl-1,8-naphthyridin-2(1H)-one]
IC50: 0.37 ± 0.03 µM

COc1ccc(OC)c(-c2cnc3c(c2)c(O)c(-c2ccccc2)c(=O)n3O)c1 [4a-9, 6-(2,5-dimethoxyphenyl)-1,4-dihydroxy-3-phenyl-1,8-naphthyridin-2(1H)-one]
IC50: 1.4 ± 0.1 µM

O=c1c(-c2ccccc2)c(O)c2cc(-c3ccsc3)cnc2n1O [4a-11, 1,4-dihydroxy-3-phenyl-6-(thiophen-3-yl)-1,8-naphthyridin-2(1H)-one]
IC50: 1.3 ± 0.3 µM

O=c1c(-c2ccccc2)c(O)c2cc(Br)cnc2n1O [4a-14, 6-bromo-1,4-dihydroxy-3-phenyl-1,8-naphthyridin-2(1H)-one]
IC50: 7.6 ± 0.1 µM

O=c1c(-c2ccccc2)c(O)c2cc(-c3ccc(O)cc3)cnc2n1O [4a-15, 1,4-dihydroxy-6-(4-hydroxyphenyl)-3-phenyl-1,8-naphthyridin-2(1H)-one]
IC50: 1.5 ± 0.1 µM

Cc1ccc(-c2cnc3c(c2)c(O)c(-c2ccccc2)c(=O)n3O)cc1 [4a-16, 1,4-dihydroxy-3-phenyl-6-(p-tolyl)-1,8-naphthyridin-2(1H)-one]
IC50: 1.9 ± 0.4 µM

CSc1cccc(-c2cnc3c(c2)c(O)c(-c2ccccc2)c(=O)n3O)c1 [4a-17, 1,4-dihydroxy-6-(3-(methylthio)phenyl)-3-phenyl-1,8-naphthyridin-2(1H)-one]
IC50: 0.6 ± 0.1 µM

O=c1c(-c2ccccc2)c(O)c2cc(-c3ccc4c(c3)OCO4)cnc2n1O [4a-19, 6-(benzo[d][1,3]dioxol-5-yl)-1,4-dihydroxy-3-phenyl-1,8-naphthyridin-2(1H)-one]
IC50: 1.1 ± 0.1 µM

N#Cc1ccc(-c2cnc3c(c2)c(O)c(-c2ccccc2)c(=O)n3O)cc1 [4a-20, 4-(5,8-dihydroxy-7-oxo-6-phenyl-7,8-dihydro-1,8-naphthyridin-3-yl) benzonitrile]
IC50: 1.9 ± 0.2 µM

NS(=O)(=O)c1ccc(-c2cnc3c(c2)c(O)c(-c2ccccc2)c(=O)n3O)cc1 [4a-21, 4-(5,8-dihydroxy-7-oxo-6-phenyl-7,8-dihydro-1,8-naphthyridin-3-yl)benzenesulfonamide]
IC50: 1.5 ± 0.1 µM

O=c1c(-c2ccccc2)c(O)c2cc(-c3ccc(F)cc3F)cnc2n1O [4a-22, 6-(2,4-difluorophenyl)-1,4-dihydroxy-3-phenyl-1,8-naphthyridin-2(1H)-one]
fluorescence quenching in the FRET assay: fluorescence quenching

O=c1c(-c2ccccc2)c(O)c2cc(-c3ccc(C(F)(F)F)cc3C(F)(F)F)cnc2n1O [4a-23, 6-(2,4-bis(trifluoromethyl)phenyl)-1,4-dihydroxy-3-phenyl-1,8-naphthyridin-2(1H)-one]
IC50: 2.7 ± 0.4 µM

O=c1c(-c2ccccc2)c(O)c2cc(-c3c(F)cc(F)cc3F)cnc2n1O [4a-24, 1,4-dihydroxy-3-phenyl-6-(2,4,6-trifluorophenyl)-1,8-naphthyridin-2(1H)-one]
fluorescence quenching in the FRET assay: fluorescence quenching

O=c1c(-c2ccccc2)c(O)c2cc(-c3cccnc3)cnc2n1O [4a-25, 1,4-dihydroxy-3-phenyl-6-(pyridin-3-yl)-1,8-naphthyridin-2(1H)-one]
IC50: 12 ± 1 µM

O=c1c(-c2ccccc2)c(O)c2cc(-c3cncnc3)cnc2n1O [4a-26, 1,4-dihydroxy-3-phenyl-6-(pyrimidin-5-yl)-1,8-naphthyridin-2(1H)-one]
IC50: 15 ± 1 µM

O=c1c(-c2ccccc2)c(O)c2cc(-c3ccco3)cnc2n1O [4a-27, 6-(furan-2-yl)-1,4-dihydroxy-3-phenyl-1,8-naphthyridin-2(1H)-one]
IC50: 4 ± 0.2 µM

CC(=O)c1ccc(-c2cnc3c(c2)c(O)c(-c2ccccc2)c(=O)n3O)s1 [4a-28, 6-(5-acetylthiophen-2-yl)-1,4-dihydroxy-3-phenyl-1,8-naphthyridin-2(1H)-one]
fluorescence quenching in the FRET assay: fluorescence quenching

O=c1c(-c2ccccc2)c(O)c2cc(-c3cnc4ccccc4c3)cnc2n1O [4a-29, 1,4-dihydroxy-3-phenyl-6-(quinolin-3-yl)-1,8-naphthyridin-2(1H)-one]
Mpr inhibition: did not inhibit Mpr

O=c1c(-c2ccccc2)c(O)c2cc(C3CC3)cnc2n1O [4a-30, 6-cyclopropyl-1,4-dihydroxy-3-phenyl-1,8-naphthyridin-2(1H)-one]
IC50: 8 ± 1 µM

O=c1c(-c2ccccc2)c(O)c2cccnc2n1O [4a-31, 1,4-dihydroxy-3-phenyl-1,8-naphthyridin-2(1H)-one]
IC50: 17 ± 1 µM

CCc1c(O)c2cc(-c3cccc(-c4ccccc4)c3)cnc2n(O)c1=O [4b-1, 6-([1,1’-biphenyl]-3-yl)-3-ethyl-1,4-dihydroxy-1,8-naphthyridin-2(1H)-one]
IC50: 0.8 ± 0.03 µM

CCc1c(O)c2cc(-c3ccc4cc(OC)ccc4c3)cnc2n(O)c1=O [4b-4, 3-ethyl-1,4-dihydroxy-6-(6-methoxynaphthalen-2-yl)-1,8-naphthyridin-2(1H)-one]
IC50: 1.6 ± 0.3 µM

CCc1c(O)c2cc(-c3ccccc3)cnc2n(O)c1=O [4b-5, 3-ethyl-1,4-dihydroxy-6-phenyl-1,8-naphthyridin-2(1H)-one]
IC50: 5.3 ± 0.2 µM

CCc1c(O)c2cc(-c3ccccc3F)cnc2n(O)c1=O [4b-6, 3-ethyl-6-(2-fluorophenyl)-1,4-dihydroxy-1,8-naphthyridin-2(1H)-one]
IC50: 2.1 ± 0.9 µM

CCc1c(O)c2cc(-c3ccc(C(F)(F)F)cc3)cnc2n(O)c1=O [4b-7, 3-ethyl-1,4-dihydroxy-6-(4-(trifluoromethyl)phenyl)-1,8-naphthyridin-2(1H)-one]
IC50: 2.5 ± 0.1 µM

CCc1c(O)c2cc(-c3ccc(SC)cc3)cnc2n(O)c1=O [4b-8, 3-ethyl-1,4-dihydroxy-6-(4-(methylthio)phenyl)-1,8-naphthyridin-2(1H)-one]
IC50: 0.7 ± 0.1 µM

CCc1c(O)c2cc(-c3cc(OC)ccc3OC)cnc2n(O)c1=O [4b-9, 6-(2,5-dimethoxyphenyl)-3-ethyl-1,4-dihydroxy-1,8-naphthyridin-2(1H)-one]
IC50: 1.5 ± 0.1 µM

CCc1c(O)c2cc(-c3ccc(OC)c(F)c3)cnc2n(O)c1=O [4b-10, 3-ethyl-6-(3-fluoro-4-methoxyphenyl)-1,4-dihydroxy-1,8-naphthyridin-2(1H)-one]
IC50: 5 ± 1 µM

CCc1c(O)c2cc(-c3ccsc3)cnc2n(O)c1=O [4b-11, 3-ethyl-1,4-dihydroxy-6-(thiophen-3-yl)-1,8-naphthyridin-2(1H)-one]
IC50: 3.9 ± 0.1 µM

O=c1cc(O)c2cc(-c3cccc(-c4ccccc4)c3)cnc2n1O [4c-1, 6-([1,1’-biphenyl]-3-yl)-1,4-dihydroxy-1,8-naphthyridin-2(1H)-one]
IC50: 0.12 ± 0.01 µM

O=c1cc(O)c2cc(-c3ccc(-c4ccccc4)cc3)cnc2n1O [4c-2, 6-([1,1’-biphenyl]-4-yl)-1,4-dihydroxy-1,8-naphthyridin-2(1H)-one]
fluorescence quenching in the FRET assay: direct quenching of fluorophore

O=c1cc(O)c2cc(-c3ccc(Oc4ccccc4)cc3)cnc2n1O [4c-3, 1,4-dihydroxy-6-(4-phenoxyphenyl)-1,8-naphthyridin-2(1H)-one]
fluorescence quenching in the FRET assay: direct quenching of fluorophore

COc1ccc2cc(-c3cnc4c(c3)c(O)cc(=O)n4O)ccc2c1 [4c-4, 1,4-dihydroxy-6-(6-methoxynaphthalen-2-yl)-1,8-naphthyridin-2(1H)-one]
IC50: 0.24 ± 0.03 µM

O=c1cc(O)c2cc(-c3ccccc3)cnc2n1O [4c-5, 1,4-dihydroxy-6-phenyl-1,8-naphthyridin-2(1H)-one]
IC50: 1.8 ± 0.01 µM

O=c1cc(O)c2cc(-c3ccccc3F)cnc2n1O [4c-6, 6-(2-fluorophenyl)-1,4-dihydroxy-1,8-naphthyridin-2(1H)-one]
IC50: 1 ± 0.1 µM

O=c1cc(O)c2cc(-c3ccc(C(F)(F)F)cc3)cnc2n1O [4c-7, 1,4-dihydroxy-6-(4-(trifluoromethyl)phenyl)-1,8-naphthyridin-2(1H)-one]
IC50: 0.47 ± 0.05 µM

CSc1ccc(-c2cnc3c(c2)c(O)cc(=O)n3O)cc1 [4c-8, 1,4-dihydroxy-6-(4-(methylthio)phenyl)-1,8-naphthyridin-2(1H)-one]
fluorescence quenching in the FRET assay: direct quenching of fluorophore

COc1ccc(OC)c(-c2cnc3c(c2)c(O)cc(=O)n3O)c1 [4c-9, 6-(2,5-dimethoxyphenyl)-1,4-dihydroxy-1,8-naphthyridin-2(1H)-one]
IC50: 1.6 ± 0.1 µM

COc1ccc(-c2cnc3c(c2)c(O)cc(=O)n3O)cc1F [4c-10, 6-(3-fluoro-4-methoxyphenyl)-1,4-dihydroxy-1,8-naphthyridin-2(1H)-one]
IC50: 2.5 ± 0.5 µM

O=c1cc(O)c2cc(-c3ccsc3)cnc2n1O [4c-11, 1,4-dihydroxy-6-(thiophen-3-yl)-1,8-naphthyridin-2(1H)-one]
fluorescence quenching in the FRET assay: direct quenching of fluorophore

NC(=O)c1cccc(-c2cnc3c(c2)c(O)cc(=O)n3O)c1 [4c-12, 3-(5,8-dihydroxy-7-oxo-7,8-dihydro-1,8-naphthyridin-3-yl) benzamide]
IC50 (read-out: Mpr IC50): 15 ± 2 µM

Cc1ccc(-c2cnc3c(c2)c(O)cc(=O)n3O)cc1F [4c-13, 6-(3-fluoro-4-methylphenyl)-1,4-dihydroxy-1,8-naphthyridin-2(1H)-one]
fluorescence quenching in the FRET assay: direct quenching of fluorophore

O=c1cc(O)c2cc(Br)cnc2n1O [4c-14, 6-bromo-1,4-dihydroxy-1,8-naphthyridin-2(1H)-one]
IC50: 9 ± 1 µM
